Values quoted from earlier work as cited in patent US8097743B2, “Process for manufacture of blocked mercaptosilane coupling agents” (Momentive Performance Materials Inc., priority 2002, dated 2012).

Conditions: cited from earlier work

| Compound | Miscibility with water (classification) (below 18.7° C.) | Solubility in water (classification) |
| --- | --- | --- |
| CCN(CC)CC [TEA, triethylamine] | completely miscible | – |
| CCCN(CCC)CCC [TNPA, tri-n-propylamine] | – | very slightly soluble |
